# Measurements as given in article PMC5889410, “Design and Biological Evaluation of Antifouling Dihydrostilbene Oxime Hybrids” (Marine Biotechnology (New York, N.y.), 2018).
# Columns and labels:
# [1] = test system: Halomonas aquamarina; test: Bacterial growth assay (OD 630 nm); format: cell-based; settings: Vreelandella aquamarina, 48 h incubation, 10–0.01 μg/mL tested, read-out: MIC against the growth of marine bacteria, H.a.
# Source text: (§1) Cyprid larvae of B. improvisus were reared in a laboratory cultivating system at Tjärnö Marine Biological Laboratory, University of Gothenburg, Sweden, as previously described by Berntsson et al. ([2000]). Four pure, but non-axenic, marine microalgae (obtained from Algobank, Caen, France) and 10 marine bacterial strains were used (Table 1) as representative microfoulers. These strains represent fouling species encountered in both estuarine and marine environments (Moodie et al. [2017b]). The bacteria were grown at 26 °C in a marine medium, composed of 0.5% peptone (neutralized bacteriological peptone, Oxoid Ltd.) in filtered (Whatman 1001–270, pore size 11 μm) natural seawater. Microalgae were grown and maintained at 22 °C in F/2 medium.
# (§2) Bacterial strain adhesion and growth were determined according to the methods of Thabard et al. ([2011]). Bacterial suspensions (100-μL aliquots, 2 × 10^8 colony forming units/mL) were aseptically added to the compound containing microplate wells (10–0.01 μg/mL), and the plates were incubated for 48 h at 26 °C. Media only was used as a blank. Bacterial growth was monitored spectroscopically at 630 nm. The minimal inhibitory concentration (MIC) for bacterial growth was defined as the lowest concentration which results in a decrease in OD. After 48-h incubation time, the bacterial adhesion assay was conducted by emptying the wells and rinsing with sterile seawater (100 μL) to remove non-attached cells, and air-drying at room temperature. The residual bacterial biofilm was stained with aqueous crystal violet (100 μL, 0.3% v/v) and the OD measured at 595 nm (Sonak and Bhosle [1995]). […] If inhibition was observed, toxicity tests were conducted. The well contents were transferred into a flask of fresh media, and growth was measured after 5 days of additional incubation. The mode of action was deemed biostatic if an increase in OD was measured at 595 nm (Moodie et al. [2017a]).
# [2] = test system: Pseudoalteromonas elyakovii; test: Bacterial growth assay (OD 630 nm); format: cell-based; settings: 48 h incubation, 10–0.01 μg/mL tested, read-out: MIC against the growth of marine bacteria, P.e.
# Source text: as §1, §2
# [3] = test system: Roseobacter litoralis; test: Bacterial growth assay (OD 630 nm); format: cell-based; settings: 48 h incubation, 10–0.01 μg/mL tested, read-out: MIC against the growth of marine bacteria, R.l.
# Source text: as §1, §2
# [4] = test system: Shewanella putrefaciens; test: Bacterial growth assay (OD 630 nm); format: cell-based; settings: 48 h incubation, 10–0.01 μg/mL tested, read-out: MIC against the growth of marine bacteria, S.p.
# Source text: as §1, §2
# [5] = test system: Vibrio aestuarianus; test: Bacterial growth assay (OD 630 nm); format: cell-based; settings: 48 h incubation, 10–0.01 μg/mL tested, read-out: MIC against the growth of marine bacteria, V.a.
# Source text: as §1, §2
# [6] = test system: Vibrio carchariae; test: Bacterial growth assay (OD 630 nm); format: cell-based; settings: Vibrio harveyi, 48 h incubation, 10–0.01 μg/mL tested, read-out: MIC against the growth of marine bacteria, V.c.
# Source text: as §1, §2
# [7] = test system: Vibrio harveyi; test: Bacterial growth assay (OD 630 nm); format: cell-based; settings: 48 h incubation, 10–0.01 μg/mL tested, read-out: MIC against the growth of marine bacteria, V.h.
# Source text: as §1, §2
# [8] = test system: Vibrio natriegens; test: Bacterial growth assay (OD 630 nm); format: cell-based; settings: 48 h incubation, 10–0.01 μg/mL tested, read-out: MIC against the growth of marine bacteria, V.n.
# Source text: as §1, §2
# [9] = test system: Vibrio proteolyticus; test: Bacterial growth assay (OD 630 nm); format: cell-based; settings: 48 h incubation, 10–0.01 μg/mL tested, read-out: MIC against the growth of marine bacteria, V.p.
# Source text: as §1, §2
# [10] = test system: marine bacteria; test: Bacterial growth assay, whole panel of ten strains; format: cell-based, 10 marine bacterial strains; settings: tested up to 10 μg/mL
# Source text: as §1, §2
# [11] = test system: Cylindrotheca closterium; test: Microalgal growth assay (chlorophyll a); format: cell-based; settings: 120 h, 5 days incubation, 10–0.01 μg/mL tested, read-out: MIC against the growth (G) of microalgae, C. closterium
# Source text: as §1
# (§3) Microplates containing the compounds in ranging concentrations (10–0.01 μg/mL) were prepared from MeOH stock solutions as previously described (Trepos et al. [2014]; Moodie et al. [2017a]). Microalgal stock solutions were prepared using the chlorophyll analysis methodology of Chambers et al. ([2011]). The pretreated microplate wells were treated with 100 μL of the algal stock solutions (0.1 mg chlorophyll a/mL). The plates were then incubated for 5 days at 20 °C under constant light exposure (140 μmol m^−2 s^−1). Both microalgal adhesion and growth inhibition were measured. Growth was determined by analysis of liberated chlorophyll a after centrifugation and methanol addition. Chlorophyll a was quantified fluorometrically. MIC value for algal growth was defined as the lowest concentration yielding a decrease in chlorophyll a content. Microalgal adhesion was determined in an analogous manner where the non-attached algal cells were removed prior to methanol addition (100 μL), releasing chlorophyll a from the remaining algal biofilms. The MIC for adhesion was defined as the lowest compound concentration causing a reduction in […]. Toxicity experiments were performed in an analogous manner to those described for the bacterial assays.
# [12] = test system: Halamphora coffeaeformis; test: Microalgal growth assay (chlorophyll a); format: cell-based; settings: Halamphora coffeiformis, 120 h, 5 days incubation, 10–0.01 μg/mL tested, read-out: MIC against the growth (G) of microalgae, H. coffeaformis
# Source text: as §1, §3
# [13] = test system: Pleurochrysis roscoffensis; test: Microalgal growth assay (chlorophyll a); format: cell-based; settings: Chrysotila roscoffensis, 120 h, 5 days incubation, 10–0.01 μg/mL tested, read-out: MIC against the growth (G) of microalgae, P. roscoffensis
# Source text: as §1, §3
# [14] = test system: Porphyridium purpureum; test: Microalgal growth assay (chlorophyll a); format: cell-based; settings: 120 h, 5 days incubation, 10–0.01 μg/mL tested, read-out: MIC against the growth (G) of microalgae, P. purpureum
# Source text: as §1, §3
# [15] = test system: Balanus improvisus cyprid larvae; test: whole plant or invertebrate; format: in vivo; settings: for IC50: Amphibalanus improvisus, 120 h, read-out: IC50 (cyprid settlement inhibition); for Toxicity (%) (dead cyprids): Balanus improvisus, in vivo, 5 days, 5 μg/mL
# Source text: as §1
# Stock solutions of compounds in DMSO were serially diluted in untreated polystyrene Petri dishes containing 10 mL of filtered (0.2 μm) seawater, affording final concentrations ranging from 0.1 to 10 μg/mL. Freshly molted balanide cyprids (18–22) were added to each Petri dish and incubated at ambient temperature (20–25 °C) for 5 days. Cyprid metamorphosis was assessed using a dissecting microscope where the numbers of juvenile settled, free-swimming, and dead cyprids were noted. Initial compound screening was conducted at 5 μg/mL, and full IC50 determination was performed only on compounds displaying > 50% inhibition at that concentration. The IC50 was defined as the concentration preventing 50% of the cyprid settlement on the Petri dish surface. Each concentration was replicated four times (n = 4), and dishes containing 0.1% of DMSO were used as negative controls. The commercial AF agent Sea-nine™ was employed as a positive control.
# [16] = test system: marine bacteria; test: Bacterial adhesion assay, whole panel of ten strains; format: cell-based, 10 marine bacterial strains; settings: tested up to 10 μg/mL, active = MIC of 10 μg/mL or below
# Source text: as §1, §2
# [17] = test system: Pleurochrysis roscoffensis; test: Microalgal adhesion assay (chlorophyll a); format: cell-based; settings: Chrysotila roscoffensis, 120 h, 5 days incubation, 10–0.01 μg/mL tested, read-out: MIC against the adhesion (A) of microalgae, P. roscoffensis
# Source text: as §1, §3
# [18] = test system: Balanus improvisus cyprid larvae; settings: cited from earlier work
# [19] = test system: Halamphora coffeaeformis; test: Microalgal adhesion assay (chlorophyll a); format: cell-based; settings: Halamphora coffeiformis, 120 h, 5 days incubation, 10–0.01 μg/mL tested, read-out: MIC against the adhesion (A) of microalgae, H. coffeaformis
# Source text: as §1, §3
# [20] = test system: Porphyridium purpureum; test: Microalgal adhesion assay (chlorophyll a); format: cell-based; settings: 120 h, 5 days incubation, 10–0.01 μg/mL tested, read-out: MIC against the adhesion (A) of microalgae, P. purpureum
# Source text: as §1, §3
# [21] = test system: microalgae; test: Microalgal adhesion and growth, whole panel of four species; format: cell-based, four marine microalgae; settings: 10–0.01 μg/mL tested
# Source text: as §1, §3
smiles,measurement,setting,value
"COc1cc(C(Cc2ccc(O)cc2)=NO)ccc1O [Compound 12, 1-(3-methoxy-4-hydroxyphenyl)-1-hydroxyimino-2-(4’-hydroxyphenyl)-ethane]",MIC,[1],0.1 µg/mL
same,MIC,[2],10 µg/mL
same,MIC,[3],1 µg/mL
same,MIC,[4],0.1 µg/mL
same,MIC,[5],> 10 µg/mL
same,MIC,[6],> 10 µg/mL
same,MIC,[7],> 10 µg/mL
same,MIC,[8],> 10 µg/mL
same,MIC,[9],> 10 µg/mL
same,MIC / activity against the growth of all bacteria tested,[10],active against four strains
same,MIC,[11],> 10 µg/mL
same,MIC,[12],10 µg/mL
same,MIC,[13],10 µg/mL
same,MIC,[14],> 10 µg/mL
same,IC50,[15],2.5 µg/mL
same,Toxicity (%) (dead cyprids),[15],3.5%
"COc1ccc(C(Cc2ccc(O)cc2)=NO)cc1OC [Compound 8, 1-(3,4-dimethoxyphenyl)-1-hydroxyimino-2-(4’-hydroxyphenyl)-ethane]",MIC / activity against the adhesion of all bacteria tested,[16],"^aCompounds 7, 8, 10, 11, and 12 were inactive against the adhesion of all bacteria tested up to 10 μg/mL"
same,MIC,[1],10 µg/mL
same,MIC,[2],> 10 µg/mL
same,MIC,[3],> 10 µg/mL
same,MIC,[4],1 µg/mL
same,MIC,[5],> 10 µg/mL
same,MIC,[6],> 10 µg/mL
same,MIC,[7],> 10 µg/mL
same,MIC,[8],> 10 µg/mL
same,MIC,[9],> 10 µg/mL
same,MIC,[11],10 µg/mL
same,MIC,[12],10 µg/mL
same,MIC,[13],10 µg/mL
same,MIC,[14],> 10 µg/mL
same,IC50,[15],5 µg/mL
same,Toxicity (%) (dead cyprids),[15],0.0%
"COc1ccc(CC(=NO)c2ccc(OC)c(OC)c2)cc1 [Compound 9, 1-(3,4-dimethoxyphenyl)-1-hydroxyimino-2-(4’-methoxyphenyl)-ethane]",MIC / activity against the adhesion of all bacteria tested,[16],displayed inhibitory activities
same,MIC,[1],10 µg/mL
same,MIC,[2],> 10 µg/mL
same,MIC,[3],> 10 µg/mL
same,MIC,[4],0.1 µg/mL
same,MIC,[5],> 10 µg/mL
same,MIC,[6],> 10 µg/mL
same,MIC,[7],> 10 µg/mL
same,MIC,[8],> 10 µg/mL
same,MIC,[9],> 10 µg/mL
same,MIC,[17],10 µg/mL
same,MIC,[11],10 µg/mL
same,MIC,[12],10 µg/mL
same,MIC,[13],> 10 µg/mL
same,MIC,[14],> 10 µg/mL
same,IC50,[15],1.5 µg/mL
same,Toxicity (%) (dead cyprids),[15],0.0%
"COc1ccc(CC(=NO)c2ccc(O)c(O)c2)cc1 [Compound 10, 1-(3,4-Dihydroxyphenyl)-1-Hydroxyimino-2-(4′-Methoxyphenyl)-Ethane]",MIC / activity against the adhesion of all bacteria tested,[16],"^aCompounds 7, 8, 10, 11, and 12 were inactive against the adhesion of all bacteria tested up to 10 μg/mL"
same,MIC,[1],> 10 µg/mL
same,MIC,[2],1 µg/mL
same,MIC,[3],> 10 µg/mL
same,MIC,[4],> 10 µg/mL
same,MIC,[5],> 10 µg/mL
same,MIC,[6],> 10 µg/mL
same,MIC,[7],> 10 µg/mL
same,MIC,[8],10 µg/mL
same,MIC,[9],> 10 µg/mL
same,MIC,[17],0.1 µg/mL
same,MIC,[11],10 µg/mL
same,MIC,[12],1 µg/mL
same,MIC,[13],1 µg/mL
same,MIC,[14],> 10 µg/mL
same,IC50,[15],5 µg/mL
same,Toxicity (%) (dead cyprids),[15],2.6%
"N[C@@H](Cc1ccc(O)cc1)C(=O)NCCc1ccc(O)cc1 [Compound 5, L-Tyrosinyltyramine]",activity against larvae settlement,"[18]; B. improvisus larvae settlement, ref Ortlepp et al. [2007]",inactive
"COc1cc(O)cc(CCc2cccc(O)c2)c1 [Compound 1, batatasin-III]",IC50 (cyprid settlement inhibition),"[18]; B. improvisus, ref Moodie et al. ([2017b])",1.0 µg/mL
"COc1ccc(C(Cc2ccccc2)=NO)cc1OC [Compound 7, 1-(3,4-dimethoxyphenyl)-1-hydroxyimino-2-phenylethane]",MIC,[1],> 10 µg/mL
same,MIC,[2],> 10 µg/mL
same,MIC,[3],> 10 µg/mL
same,MIC,[4],> 10 µg/mL
same,MIC,[5],10 µg/mL
same,MIC,[6],10 µg/mL
same,MIC,[7],1 µg/mL
same,MIC,[8],> 10 µg/mL
same,MIC,[9],> 10 µg/mL
same,MIC / activity against the growth of all bacteria tested,[10],modest activity
same,MIC,[19],0.01 µg/mL
same,MIC,[20],1 µg/mL
same,MIC,[11],1 µg/mL
same,MIC,[12],0.1 µg/mL
same,MIC,[13],0.01 µg/mL
same,MIC,[14],10 µg/mL
same,IC50,[15],2.5 µg/mL
same,Toxicity (%) (dead cyprids),[15],5.8%
same,MIC / activity against the attachment and growth of microalgae,[21],inhibited both the settlement and growth of all of the tested species
